Experiments:
zD17-JNK3 interaction = zD17-JNK3 interaction (Rattus norvegicus, UniProt P49187); assay: co-immunoprecipitation of zD17 with JNK3 in cortical neuronal cultures; type: cell-based; set-up: diminished the co-immunoprecipitation of zD17 with JNK3; endogenous in cells; host or cells: primary cortical neurons of embryonic (E18-19) Wistar rat; details: for zD17-JNK3 interaction (co-immunoprecipitation), baseline: no NMDA
Method: (§1) All animal experiments were approved by the Animal Care Committee of the University of British Columbia. Primary cortical cultures were prepared from Wistar rat (UBC Animal Care Centre, Vancouver, BC, Canada) brains at embryonic days 18-19. Cultures were maintained in Neurobasal medium supplemented with B27 and 0.5 mM glutamax (Invitrogen™) as described previously (Yang et al., 2009).
(§2) The protocols for protein extraction have been described previously (Yang et al., 2009). For co-immunoprecipitation, cultured cells were washed with ice-cold PBS followed by incubation with 0.5 ml Gentle Lysis Buffer (GLB) containing 25 mM Tris-HCl (pH 7.4), 2 mM EDTA, 1 mM EGTA, 10 mM NaCl, 0.5% Triton X-100 and 10% Glycerol supplemented with the Complete Protease Inhibitor Tablets (Roche Applied Science™, Indianapolis, Ind., USA) and 1 mM PMSF. Total protein concentration was determined with the BioRad™ Protein Assay kit. Lysates were first precleaned by incubating with Protein A-Sepharose beads (Roche Applied Science™) for 1 h at 4° C., followed by incubation with indicated antibodies (>16 h at 4° C.) and protein A Sepharose bead (2 h at 4° C.). Lysates of rat brain tissues were precleaned with IgG and protein A-beads. Immunoprecipitates were washed three times with GLB buffer; boiled in 2× loading buffer with 1 mM dithiothreitol (DTT) for 3 min; and analyzed with SDS-PAGE as described previously (Yang et al., 2009). The relative intensities of the bands on immunoblots were analyzed and quantified using Image J™ (NIH).

zD17-JNK2 interaction = molecular target: T1, zD17-JNK2 interaction (Rattus norvegicus, UniProt P49186); assay: co-immunoprecipitation of zD17 with JNK2 in neuronal cultures; type: cell-based
T1 construct: endogenous in cells; host or cells: primary cortical neurons of embryonic Wistar rat
T1 sequence (P49186 whole entry): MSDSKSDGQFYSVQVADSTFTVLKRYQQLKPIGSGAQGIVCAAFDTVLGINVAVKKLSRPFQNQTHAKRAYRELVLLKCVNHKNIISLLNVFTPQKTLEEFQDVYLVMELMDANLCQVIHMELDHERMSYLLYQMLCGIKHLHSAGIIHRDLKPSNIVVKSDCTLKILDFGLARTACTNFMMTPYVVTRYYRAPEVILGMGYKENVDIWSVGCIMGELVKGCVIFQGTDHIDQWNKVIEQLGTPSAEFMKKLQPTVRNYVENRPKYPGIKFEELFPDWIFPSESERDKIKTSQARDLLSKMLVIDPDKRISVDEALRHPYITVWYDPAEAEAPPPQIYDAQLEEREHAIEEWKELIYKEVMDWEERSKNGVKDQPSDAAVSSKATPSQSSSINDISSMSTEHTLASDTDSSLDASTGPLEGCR
Method: as §1, §2

zD17-JNK1 interaction = molecular target: T2, zD17-JNK1 interaction (Rattus norvegicus, UniProt P49185); assay: co-immunoprecipitation of zD17 with JNK1 in neuronal cultures; type: cell-based
T2 construct: endogenous in cells; host or cells: primary cortical neurons of embryonic Wistar rat
T2 sequence (P49185 whole entry): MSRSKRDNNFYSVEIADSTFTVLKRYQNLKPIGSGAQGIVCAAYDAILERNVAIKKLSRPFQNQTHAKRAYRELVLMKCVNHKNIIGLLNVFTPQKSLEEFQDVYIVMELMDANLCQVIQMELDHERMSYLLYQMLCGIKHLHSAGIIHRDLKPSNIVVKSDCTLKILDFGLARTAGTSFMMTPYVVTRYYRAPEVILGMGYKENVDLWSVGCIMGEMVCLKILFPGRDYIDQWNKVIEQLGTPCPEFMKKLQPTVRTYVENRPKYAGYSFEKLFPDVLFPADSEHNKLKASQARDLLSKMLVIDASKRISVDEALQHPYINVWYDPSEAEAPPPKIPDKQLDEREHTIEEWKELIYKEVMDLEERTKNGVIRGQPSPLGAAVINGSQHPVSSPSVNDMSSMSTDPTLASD
Method: as §1
as §2, with “Lysates were first precleaned by incubating with Protein A-Sepharose beads (Roche Applied Science™) for 1 h at 4° C., followed by incubation with indicated antibodies (>16 h at 4° C.) and protein A Sepharose bead (2 h at 4° C.). Lysates of rat brain tissues were precleaned with IgG and protein A-beads.” left out

cultured neurons = assay: axonal development in cultured neurons (Tau-1 labelling); type: cell-based, rat
Method: (§3) For biochemical studies, neurons were seeded in six-well culture plates with a density of 7.5×10^5 cells per well. For LDH assay and cell death detection, 24-well culture plates were used with a neuron density of 2.5×10^5 cells per well. Neurons of 14-17 days in vitro (DIV) were used for experiments. […] HEK 293 cells were maintained in DMEM (Invitrogen™) supplemented with 10% fetal bovine serum and 1% penicillin/streptomycin. For protein expression in cell lines, cells were transfected with Calcium Phosphate Transfection reagent (Promega™, San Luis Obispo, Calif., USA) and used 24 h later as described previously (Yang et al., 2009). The JNK inhibitor, L-JNKI, was purchased from Alexis Biochemicals™ (San Diego, Calif.). Thrombin was obtained from BIOPUR™ (Bubendorf, Switzerland). Other assay reagents without indication were obtained from Sigma™.
Cultured hippocampal neurons on glass coverslips were used for immunostaining. After treatments indicated in the text, neurons were fixed with 2% paraformaldehyde for 3 min at room temperature followed by permeabilization with ice-cold methanol for 10 min at −20° C. The coverslips were then washed three times with PBS and immunostained with appropriate antibodies dissolved in PBS for 1 h at room temperature. After washing three times with PBS, coverslips were incubated with Alexa-labeled secondary antibodies from Invitrogen for an additional 1 h. For mitochondrial detection, neuronal cultures were incubated at 37° C. for 30 min with 2 μM MitoTracker-TR (Invitrogen™). Coverslips were then fixed and mounted with ProLong Gold Antifade Reagent (Invitrogen™). Fluorescence was captured using a Zeiss Observer Z1™ microscope and all images were analyzed with ImageJ™ and processed using Adobe Photoshop™.

JNK3 = molecular target: T3, JNK3 (Rattus norvegicus, UniProt P49187); assay: kinase assay (KA) on JNK3 immunoprecipitated from cell lysates; type: cell-based
T3 construct: cell lysates were prepared and JNK was immunoprecipitated with specific antibodies; endogenous in cells; host or cells: rat primary neuronal cultures; JNK3 immunoprecipitated from lysate
T3 sequence (P49187 whole entry): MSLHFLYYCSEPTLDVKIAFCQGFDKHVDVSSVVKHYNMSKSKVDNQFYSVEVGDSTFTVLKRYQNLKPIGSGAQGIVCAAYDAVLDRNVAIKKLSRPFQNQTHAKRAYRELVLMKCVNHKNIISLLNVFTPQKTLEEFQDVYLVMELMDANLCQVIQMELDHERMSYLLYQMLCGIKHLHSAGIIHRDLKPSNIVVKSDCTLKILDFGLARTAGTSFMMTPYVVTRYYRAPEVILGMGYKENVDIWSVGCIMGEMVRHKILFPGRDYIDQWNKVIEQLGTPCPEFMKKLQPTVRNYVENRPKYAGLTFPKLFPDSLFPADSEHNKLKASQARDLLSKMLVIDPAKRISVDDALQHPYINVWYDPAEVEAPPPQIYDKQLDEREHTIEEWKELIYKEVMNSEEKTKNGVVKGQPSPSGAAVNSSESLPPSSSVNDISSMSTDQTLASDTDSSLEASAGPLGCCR
Method: JNK activity was measured with an in vitro kinase assay as described elsewhere (see, for e.g.: Khatlani et al., 2007). Briefly, cell lysates were prepared and JNK was immunoprecipitated with specific antibodies. The immnoprecipitates were then resuspended in 1× kinase buffer (Cell Signaling Technology™) supplemented with 200 μM ATP and 250 μg/ml GST-c-jun (1-89), and incubated at 30° C. for 30 min. Reactions were terminated by the addition of SDS-PAGE sample buffer. Phosphorylated c-jun was resolved by SDS-PAGE and detected with anti-p-c-jun.

neuronal cultures = assay: LDH assay and PI staining, NMDA excitotoxicity-induced neuronal cell death; type: cell-based, rat; details: pretreatment, NMDA challenge 1 h, 24 h survival
Method: as §3
Neuronal cultures were challenged with indicated concentrations of NMDA for 1 h, followed by 24 h survival. The release of lactate dehydrogenase (LDH) was measured with an in vitro toxicology assay kit (Sigma™) according to the manufacturer's instructions. Spectrophotometric measurement was performed on a Multilabel Plate Reader (Envision™ 2103, Perkin Elmer™). The LDH reading represents the primary absorbance at a wavelength of 490 nm after subtraction of background absorbance at 690 nm. LDH readings were then converted to a percentage of neuronal death by dividing by the readings from cultures incubated with 1% triton for 15 min representing total LDH. Following the LDH assay, propidium iodide (PI) (Sigma™) was added to the medium at a final concentration of 1 μg/ml and neurons were stained for 30 min at 30° C. After fixation with 4% paraformaldehyde, neurons were washed with 1×PBS and stained with Hoechst™ 33342 (Sigma™). The fluorescence of PI and Hoechst™ were examined with laser microscopy and analyzed with ImageJ™.

Sequence of zD17-JNK3 interaction (P49187 whole entry): as above

## CCCCCCCCCCCCCCC(Br)C(=O)O (stereo not drawn) [2-BrPA, 2-bromopalmitate]
zD17-JNK3 interaction
  zD17-JNK3 interaction (co-immunoprecipitation), baseline: robustly enhanced

## N[C@@H](CCC(=O)O)C(=O)O [Glutamate, glutamate]
zD17-JNK2 interaction
  zD17 interaction with JNK2, fold increase compared with control: 1.7±0.2 fold
zD17-JNK1 interaction
  zD17 interaction with JNK1, fold increase compared with control: 1.4±0.1 fold
zD17-JNK3 interaction
  zD17 interaction with JNK3, fold increase compared with control: 2.6±0.2 fold

## CN[C@H](CC(=O)O)C(=O)O [NMDA, N-methyl-D-aspartic acid]
zD17-JNK2 interaction
  zD17 interaction with JNK2, fold increase compared with control: 2.1±0.4 fold
zD17-JNK1 interaction
  zD17 interaction with JNK1, fold increase compared with control: 1.4±0.1 fold
zD17-JNK3 interaction
  zD17 interaction with JNK3, fold increase compared with control: 2.5±0.3 fold

## Oc1c2ccccc2c2c3c(cccc13)N=N2 [SP600125, reference compound]
Cultured neurons; SP600125 incubation, control 161.2±3.9
  axon length: 84.9±1.6%
Cultured neurons; incubation of cultured neurons, Tau-1 marker
  axon initiation rate normalized to control: 18.2±4.1%

## IL-1β: cytokine used to induce inflammation stress
zD17-JNK3 interaction; 10 ng/ml, 16 h
  fold increase of zD17-JNK3 interaction: 1.88±0.23 fold

## MTPLMWAAYGTGSVGPTRLL (NIMoEmut NIMoE sequence with point mutations on three charged amino acids at positions 10, 12, and 15) [reference compound]
JNK3; neuronal cultures
  enhancement of JNK3 activity induced by NMDA: did not selectively block enhancement
Neuronal cultures
  excitotoxicity-induced cell death as measured by LDH release and PI staining: no protective effects
zD17-JNK3 interaction
  enhancement of the zD17-JNK3 interaction induced by NMDA/excitotoxicity: did not selectively block enhancement

## NVKGESALDLAKQ (listed as Homo sapiens) [DIPep1, control peptide derived from an unrelated region of zD17 (255-267), reference compound]
Neuronal cultures
  excitotoxicity-induced cell death as measured by LDH release and PI staining: no protective effects

## TNF-α
zD17-JNK3 interaction; 50 ng/ml, 6 h
  fold increase of zD17-JNK3 interaction: 1.53±0.11 fold

## TPLHWATRGGHLSMV (listed as Homo sapiens) [NIMoD, peptide comprising motif-D of zD17, fused to HIV-1 Tat transduction domain]
JNK3; neuronal cultures
  JNK3 basal activity: reduction of JNK3 basal activity
JNK3; pretreatment of cells 1 μM for 2 h
  JNK3 basal activity, fold change to control: 0.72±0.07 fold
zD17-JNK3 interaction
  zD17-JNK3 interaction (co-immunoprecipitation), baseline: significantly diminished

Source: US9458437B2, “Neuroprotective peptides that inhibit interaction between palmitoyl acyl transferase zinc-finger DHHC type containing 17 (zD17) and c-jun N-terminal kinase (JNK)” (The University of British Columbia, priority 2011, dated 2016)
